Reference: publication PMC12838644, “Dihydrotanshinone as a Natural Product-Based CYP17A1 Lyase Inhibitor for Hyperandrogenic Disorders” (Biomolecules, 2026)

What was measured:
[1] = target: T1, CYP17A1 17α-hydroxylase (Homo sapiens, UniProt P05093); assay: CYP17A1 17α-hydroxylase activity assay (progesterone to 17OH-progesterone, reconstituted POR/CYP17A1); type: biochemical; conditions: 10 µM (SM extract 10 µg/mL)
T1 sequence (P05093 1-508): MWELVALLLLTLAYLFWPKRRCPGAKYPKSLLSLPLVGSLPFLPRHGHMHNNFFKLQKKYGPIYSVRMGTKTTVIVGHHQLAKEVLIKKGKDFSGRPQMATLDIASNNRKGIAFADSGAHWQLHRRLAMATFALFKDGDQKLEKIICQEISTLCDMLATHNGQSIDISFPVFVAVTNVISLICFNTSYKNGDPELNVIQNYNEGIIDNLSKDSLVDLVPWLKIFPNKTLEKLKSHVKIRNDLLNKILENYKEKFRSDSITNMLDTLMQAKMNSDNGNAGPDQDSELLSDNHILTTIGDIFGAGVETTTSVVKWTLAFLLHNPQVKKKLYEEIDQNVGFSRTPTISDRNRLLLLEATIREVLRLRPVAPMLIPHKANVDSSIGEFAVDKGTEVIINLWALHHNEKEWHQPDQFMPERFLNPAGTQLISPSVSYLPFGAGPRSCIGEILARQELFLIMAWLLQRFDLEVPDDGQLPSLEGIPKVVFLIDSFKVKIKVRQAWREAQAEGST
Procedure: (§1) Assay of CYP17A1 17α-hydroxylase and 17,20-lyase activities were performed as described previously. The 17α-hydroxylase activity was measured by conversion of progesterone to 17OH-progesterone, while production of DHEA from 17OH-pregnenolone was used for monitoring the 17,20-lyase activity of CYP17A1. In vitro CYP17A1 assays were performed using a liposome system consisting of human p450 oxidoreductase (POR) and CYP17A1 at a ratio of 3:4 (POR: CYP17A1). The final assay mixture consisted of proteins (37.5 nmol POR: 50 nmol CYP17A1), 10 mM MgCl2, 6 mM potassium acetate (KOAc), 0.05 mg/mL DLPC,1 mM reduced Glutathione in 50 mM HEPES-NaOH buffer (pH 7.4), and the reaction volume was 200 μL. The drugs were added to the final mixture and incubated for 1h before the catalytic reaction was initiated by the addition of NADPH to 1 mM final concentration. Radiolabeled [^14C]-progesterone (10,000 cpm in 1 µM) was used as a tracer in each reaction. Steroids were extracted and separated by thin-layer chromatography (TLC) on silica gel (SIL G/UV254) TLC plates (Macherey-Nagel, Oensingen, Switzerland) as previously described.

[2] = target: T2, CYP17A1 17,20-lyase (Homo sapiens, UniProt P05093); assay: CYP17A1 17,20-lyase activity assay (DHEA from 17OH-pregnenolone, POR, CYP17A1 and cytochrome b5); type: biochemical
T2 sequence (P05093 1-508): T1 sequence (P05093 1-508)
Procedure: as §1, with “The final assay mixture consisted of proteins (37.5 nmol POR: 50 nmol CYP17A1), 10 mM MgCl2, 6 mM potassium acetate (KOAc), 0.05 mg/mL DLPC,1 mM reduced Glutathione in 50 mM HEPES-NaOH buffer (pH 7.4), and the reaction volume was 200 μL.” left out
In vitro CYP17A1 17,20-lyase activity assays were performed using POR, CYP17A1 and cytochrome b5 as described previously. The final assay mixture consisted of proteins, 10 mM MgCl2, 6 mM KOAc, 0.05 mg/mL DLPC, 1 mM reduced glutathione in 50 mM HEPES-NaOH buffer (pH 7.4), and the reaction volume was 200 μL. The drugs were added to the final mixture and incubated for 1h before the catalytic reaction was initiated by the addition of NADPH to 1 mM final concentration. Radiolabeled [^3H]-17OH-pregnenolone (50,000 cpm in 1 µM) was added as a tracer and the enzyme activity was measured by using the scintillation counter in the water release assay.

[3] = target: T3, CYP21A2 (Homo sapiens, UniProt P08686); assay: CYP21A2 activity assay in transiently transfected HEK-293T cells; type: cell-based; conditions: transfected HEK-293T cells
T3 construct: expressed in transfected cells; host or cells: HEK293 / HEK-293T
T3 sequence (P08686 1-495): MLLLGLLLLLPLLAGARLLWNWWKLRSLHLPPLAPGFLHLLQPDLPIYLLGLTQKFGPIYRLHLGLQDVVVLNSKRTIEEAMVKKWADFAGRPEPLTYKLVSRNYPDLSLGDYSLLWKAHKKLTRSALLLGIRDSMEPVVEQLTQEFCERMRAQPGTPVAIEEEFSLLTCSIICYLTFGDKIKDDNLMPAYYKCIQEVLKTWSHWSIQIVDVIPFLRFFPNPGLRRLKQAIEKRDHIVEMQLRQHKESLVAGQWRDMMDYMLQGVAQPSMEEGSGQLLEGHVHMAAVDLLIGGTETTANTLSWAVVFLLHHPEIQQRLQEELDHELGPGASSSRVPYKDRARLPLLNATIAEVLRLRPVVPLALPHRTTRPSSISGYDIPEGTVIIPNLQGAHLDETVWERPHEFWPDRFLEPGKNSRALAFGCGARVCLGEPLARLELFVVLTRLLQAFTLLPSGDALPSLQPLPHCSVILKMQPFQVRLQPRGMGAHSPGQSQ
Procedure: Transient transfections were performed using the CYP21A2 WT vector as described previously. HEK293 cells were seeded in six-well plates (3 × 10^5 cells/well). After 24 h, the growth medium was replaced, and cells were transfected using Lipofectamine 2000 (Thermo Fisher Scientific, Bedford, MA, USA) with 12.5 µg of plasmid (plasmid concentration: 1068 µg/mL). Twenty-four hours after transfection, transfected cells were replated in 24-well plates (1.5 × 10^5 cells/well) to ensure homogeneity of the cell population across the wells. Six hours after transfection, 2 mL of fresh medium was replaced, and the cells were cultured for 48 h. Cell growth was examined. […] DMSO was added to the negative control, and 10 µM abiraterone was added to the positive control, and the cells were incubated for 4 h. Functional assays were initiated by adding 1 µM unlabeled progesterone (using 10,000 cpm of [^14C]-progesterone as a tracer). After incubation at 37 °C for 1 h, the culture medium and cells were harvested. Steroids were extracted from the culture medium with ethyl acetate and isooctane (1:1 volume ratio), dried, and dissolved in dichloromethane. Steroids were separated by thin-layer chromatography (TLC), placed on a phosphor screen, and visualized using a Typhoon PhosphorImager FLA-7000 (GE Healthcare Bio-Sciences AB, Uppsala, Sweden). Image intensity was measured and quantified using ImageQuant TL v8 (Cytiva, Marlborough, MA, USA). The CYP21A2 enzyme activity was expressed as relative steroid conversion. Steroids were quantified as a percentage of radioactivity incorporated into […] to the total radioactivity measured in the whole sample and compared between the WT and variants. Cells were collected with trypsin and washed with 1× PBS to quantify the amount of protein. Results were analyzed from three technical replicates. To ensure a similar amount of CYP21A2 in each reaction, a Western blot analysis was performed to normalize the enzyme activity with the relative CYP21A2 expression.

For `C[C@]12CC[C@H](O)CC1=CC[C@@H]1[C@@H]2CC[C@]2(C)C(c3cccnc3)=CC[C@@H]12` [Abiraterone, abiraterone, reference compound], the inhibition at 10 µM ([1]; calculated as 100% − % residual activity, read-out: % Inhibition CYP17A1-OH) was 94.7%, the “Residual 17α-hydroxylase activity” value ([1]; % of DMSO control) was 5.3% and the inhibition at 10 µM ([2]; 10 µM (SM extract 10 µg/mL), calculated as 100% − % residual activity, read-out: % Inhibition CYP17A1-Lyase) was 69.6%. The “Residual 17,20-lyase activity” value ([2]; % of DMSO control, 10 µM (SM extract 10 µg/mL)) was 30%, the “Lyase/CYP21A2 Selectivity Index” value ([2]; (% Inhibition Lyase)/(% Inhibition CYP21A2) at 10 µM (SM 10 µg/mL)) was 2.34 and the “Lyase/OH Selectivity Index” value ([2]; (% Inhibition Lyase)/(% Inhibition OH) at 10 µM (SM 10 µg/mL)) was 0.73. For the same compound, the inhibition at 10 µM ([3]; 10 µM (SM extract 10 µg/mL), calculated as 100% − % residual activity, read-out: % Inhibition CYP21A2) was 29.8% and the “Residual CYP21A2 activity” value ([3]; % of DMSO control, 10 µM) was 70%.
